The values below come from patent US7824914B2, “Flavonoids-rich tissues from Neomarica gracilis and methods for culturing the same” (Tatung Company, priority 2006, dated 2010).

Type in all cases: cell-based, Neomarica gracilis
The test system of test [1] is N. gracilis rhizome tissue. In words: Effect of plant growth regulators on N. gracilis rhizome tissue growth and tectorigenin content in flask culture. How it is done:
(2) To determine the effect of plant growth regulators (PGR), sprouts from liquid cultured N. gracilis rhizome tissue were removed with a scalpel. The rhizome tissue was inoculated at an inoculum weight of 3% (g F.W./50 ml) in culture medium containing MS basic medium supplemented with PGRs as shown in Table 2. The culture medium was changed every two weeks. The cultured tissue was weighted at each medium change for a total of eight weeks.
N. gracilis rhizome tissue was frozen at −80° C. for 10 hours, dried in a refrigerated vacuum drier (VirTis Freezemobile 12XL) overnight, and grinded. 0.5 g of dried and grinded tissue was suspended in adequate amount of methanol in a 10 ml flask, […] incubated at 60° C. with ultrasonic vibration for 1 hour, and cooled. Methanol was then added to the suspension to a final volume of 10 ml. The suspension was filtered with Whatman No. 1 filter paper. The filtered solution was sealed in brown sample vials and placed in cold room for future experiments.
(§1) The tectorigenin content of the tissue extract was determined by HPLC analysis using a Cosmosil 5 C18-AR-II column (5 μm, 4.6×250 mm), a Lichrospher® 100 RP-18e Guard column (45×4.6 mm, 5 μm, Merck), a Degasser (ERC-3415α) Pump, a Waters 600E Autosampler and Injector (Schambeck SGD GmbH S5200), a Waters TM 486 UV/VIS Detector, and an Integrator (SISC Xunhua Ltd.). The analysis was performed using a methanol:H2O (0.1% Acetic acid) ratio of 55:45, a flowrate of 0.8 ml/min, and a detection wavelength of 265 nm. The tectorigenin peak of the standard appeared at about 13 min appear.
N. gracilis rhizome tissue was inoculated at an inoculum weight of 3% (g F.W./[…]) in culture medium containing MS supplemented with various amount of PGRs (Table 2). The culture medium was changed and the fresh weight of the tissues was measured every two weeks. Significant increases in fresh weight were observed during 6-8 weeks of culture (FIG. 3).

Test [2] relates to N. gracilis rhizome tissue. The experiment in a line: Effect of inoculum weight and PGRs on tissue growth in TIS culture. The note with it: 1 mg/L kinetin, inoculum weight 1.5 g, 30 days. How it is done: (1) To determine the effect of the inoculation weight on tissue growth, the TIS culture chamber was divided into four areas. Liquid cultured N. gracilis rhizome tissue was inoculated at 1.5, 3, 6 and 9 g in each area. The culture medium was an MS medium supplemented with PGR as described in samples T12, T17 and T18 of Table 3. The tissues were cultured under conditions detailed in the Plantima® user's manual and immersed for two minutes every three hours. The cultured tissue was weighted and the medium replaced every ten days.
The TIS culture chamber was divided into four areas and liquid cultured N. gracilis rhizome tissue was inoculated at an inoculum weight of 1.5, 3, 6 and 9 g in each area. The culture medium was MS medium supplemented with PGR as described in samples TI2, TI7 and TI8 of Table 3. The cultured tissue was weighted every ten days. […] All other inoculum weights/PGR combinations led to slower growth (FIG. 7).

Test [3] deals with N. gracilis rhizome tissue. The experiment in a line: Effect of PGRs on growth and tectorigenin content in TIS culture. The note with it: for Growth rate: (Final F.W. − Initial F.W.)/Initial F.W.; for F.W. / Tectorigenin: week 4. How it is done:
(2) To determine the effect of PLRs on the grows of N. gracilis and the tectorigenin content influence, ten pieces of liquid cultured N. gracilis rhizome tissue were inoculated in culture media containing MS and PGRs described in samples MS0, TI3, TI4, TI5 and TI6 of Table 3. The culture media were replaced on week 2 and the tissues were harvested on week 4 and analyzed for tectorigenin content.
as §1
To determine the effect of PGRs on the tectorigenin content, ten pieces of liquid cultured N. gracilis rhizome tissue (1.5 g each) were inoculated in culture media containing MS and PGRs described in samples MS0, TI3, TI4, TI5 and TI6 of Table 3. The tissues were harvested on week 4 and analyzed for tectorigenin content.

The test system of test [4] is N. gracilis rhizome tissue. The experiment in a line: Effect of ancymidol on sprout formation and tectorigenin content of cultured rhizome tissue. How it is done: (4) To determine ancymidol's effect on sprout formation and tectorigenin content, liquid cultured N. gracilis rhizome tissue was inoculated at an inoculum weight of 3% (g F.W./100 ml) to a subculture medium containing MS, 0.5 mg/L BA, 0.1 mg/L 2,4-D and 0.84 mg/L NAA. At day 7 and 14 of the culture, sterilely filtered (0.2 um) ancymidol was added to the culture medium to a final concentration of 0.5, 1.0, or 2.0 mg/L. The growth of the tissue was monitored and the tectorigenin content analyzed.
as §1
Liquid cultured N. gracilis rhizome tissue was inoculated at an inoculum weight of 3% (g F.W./100 ml) to a subculture medium containing MS, 0.5 mg/L BA, 0.1 mg/L 2,4-D and 0.84 mg/L NAA. At day 7 and 14 of the culture, sterilely filtered (0.2 um) ancymidol was added to the culture medium to a final concentration of 0.5, 1.0, or 2.0 mg/L. The growth of the tissue was monitored and the tectorigenin content analyzed.

The test system of test [5] is N. gracilis rhizome tissue. In words: Tectorigenin content during growth of rhizome tissue in flask culture (weekly for 8 weeks). The note with it: 0.1 mg/L NAA, week 1, flask culture. How it is done: (3) To determining the growth curve of N. gracilis rhizome tissue and the tectorigenin content, sprouts from liquid cultured N. gracilis rhizome tissues were removed with a scalpel. The rhizome tissue was inoculated at an inoculum weight (g F.W./50 ml) in culture medium containing the MS basic medium supplemented with 0.1 mg/L NAA or a mixture of 1 mg/L NAA and 1.0 mg/L 2,4-D. The tissues were weighted and analyzed for tectorigenin content every week for eight consecutive weeks.
as §1
Rhizome tissue was inoculated at an inoculum weight of 3% (g F.W./50 ml) in culture medium containing MS basic medium supplemented with 0.1 mg/L NAA or a mixture of 1 mg/L NAA and 1.0 mg/l 2,4-D. The tissues were weighted and analyzed for tectorigenin content every week for eight consecutive weeks.

Where [6] appears, read: IAA 0.1 mg/L, Kinetin 0, 8 weeks flask culture.
The mark [7] stands for this setting: IAA 0.5 mg/L, Kinetin 0, 8 weeks flask culture.
Setting [8] is: IAA 1 mg/L, Kinetin 0, 8 weeks flask culture.
Where [9] appears, read: 2,4-D 0.1 mg/l, NAA 0, 8 weeks flask culture.
The mark [10] stands for this setting: 2,4-D 1.0 mg/l, NAA 0, 8 weeks flask culture.
Where [11] appears, read: NAA 0.1 mg/l, 2,4-D 0, 8 weeks flask culture.
[12] abbreviates: NAA 0.5 mg/l, 2,4-D 0, 8 weeks flask culture.
[13] abbreviates: NAA 1.0 mg/l, 2,4-D 0, 8 weeks flask culture.
Where [14] appears, read: NAA 2.0 mg/l, 2,4-D 0, 8 weeks flask culture.

Where “and” joins values, the source holds several entries; their conditions need not be identical. Equal values may be shown once.

Regarding `O=C(O)Cc1c[nH]c2ccccc12` [IAA, indole-3-acetic acid], the Dry weight is 1.26 ± 0.22 b g in test [1] (setting [6]), 1.02 ± 0.11 bc g in test [1] (setting [7]) and 1.70 ± 0.08 a g in test [1] (setting [8]). Further, the Tectorigenin in test [1] (setting [6]) is 11.8 ± 8.4 b mg/kg D.W; in test [1] (setting [7]), 37.6±4.9 mg/kg D.W. and 37.6 ± 4.9 a mg/kg D.W; in test [1] (setting [8]), 29.0 ± 0.29 c mg/kg D.W.
Regarding `c1coc(CNc2ncnc3[nH]cnc23)c1` [Kinetin, kinetin], the “change of tectorigenin content (in words)” value in test [1] (flask culture, 8 weeks) was “did not result in any increase in the tectorigenin content”. Also, in test [2], the fresh weight amounted to 6.76 ± 0.33 g and the “fresh weight as fold of the inoculum weight” value worked out at 4.5 fold. Further, in test [3] (Kinetin 1.0 mg/l), the Growth rate was determined as 2.07 ± 0.15, the F.W. was found to be 46.12 ± 2.18 g and the Tectorigenin is recorded as 10 ± 0.15 mg/kg D.W.
In the case of `COc1ccc(C(O)(c2cncnc2)C2CC2)cc1` (stereo not shown) [Ancymidol, ancymidol], the “effect on tectorigenin content (in words)” value is on record as “reduced tectorigenin content” in test [4] (0.5 or 2.0 mg/L added on day 14) and “did not affect the tectorigenin content” in test [4] (added on day 7). The Tectorigenin was 28.31 ± 0.11 b mg/kg D.W in test [4] (Ancymidol 0.5 mg/L added day 7, 3 weeks of culture); 18.59 ± 0.07 c mg/kg D.W in test [4] (Ancymidol 0.5 mg/L added day 14, 3 weeks of culture); 27.74 ± 0.08 b mg/kg D.W in test [4] (Ancymidol 1.0 mg/L added day 7, 3 weeks of culture); 30.81 ± 0.35 a mg/kg D.W in test [4] (Ancymidol 1.0 mg/L added day 14, 3 weeks of culture); 35.65 ± 0.18 a mg/kg D.W in test [4] (Ancymidol 2.0 mg/L added day 7, 3 weeks of culture); 13.36 ± 0.13 d mg/kg D.W in test [4] (Ancymidol 2.0 mg/L added day 14, 3 weeks of culture). For the same compound, the “sprout formation (morphology)” value in test [4] (added on day 7) is given as “significant reduction of sprout formation”.
Regarding `O=C(O)COc1ccc(Cl)cc1Cl` [2,4-D, 2,4-dichlorophenoxyacetic acid], the Dry weight was 0.92 ± 0.15 bc g in test [1] (setting [9]) and 1.17 ± 0.21 ab g in test [1] (setting [10]). Besides, the results for the Tectorigenin in test [1] (setting [9]) and in test [1] (setting [10]) were 38.9 ± 1.17 cd mg/kg D.W and 36.7 ± 0.33 cd mg/kg D.W, respectively.
Turning to `O=C(O)Cc1cccc2ccccc12` [NAA, α-naphthaleneacetic acid], the Dry weight in test [1] (setting [11]) came out at 1.39 ± 0.32 a g; in test [1] (setting [12]), 1.03 ± 0.31 bc g; in test [1] (setting [13]) it was 1.05 ± 0.20 bc g; in test [1] (setting [14]), 0.75 ± 0.02 cd g. Further, the Tectorigenin in test [1] (setting [11]) is 55.5±0.67 mg/kg D.W. and 55.5 ± 0.67 ab mg/kg D.W; in test [1] (setting [12]), 59.9±0.23 mg/kg D.W. and 58.9±0.23 mg/kg D.W. and 58.9 ± 0.23 ab mg/kg D.W; in test [1] (setting [13]) it was 49.0 ± 0.81 bc mg/kg D.W; in test [1] (setting [14]), 9.4 ± 0.22 e mg/kg D.W; in test [3] (NAA 0.1 mg/l) it was 38 ± 0.57 mg/kg D.W; in test [3] (NAA 0.5 mg/l), 33 ± 0.38 mg/kg D.W. The “tectorigenin content (highest, during week 1)” value in test [5] was 56±2.82 mg/kg D.W. The Growth rate is listed as 1.71 ± 0.14 in test [3] (NAA 0.1 mg/l) and 1.10 ± 0.21 in test [3] (NAA 0.5 mg/l). Also, the F.W. in test [3] (NAA 0.1 mg/l) was 40.65 ± 2.09 g; in test [3] (NAA 0.5 mg/l), 31.47 ± 3.12 g.
